Measurements published in patent publication KR20100075412A, “방사성 세포 표지자” (경북대학교 산학협력단, priority 2008, dated 2010).
Where two headings read alike, the source gives them in different places.

Experiments:
cells [세포] = details: cited from earlier work
L6 cells = assay: Cell labelling with [131I]OIB / [131I]HIB, L6 cells; type: cell-based, rat; details: for cell labelling yield: L6, in PBS, centrifuged and washed several times
H9C2 cells = assay: Cell labelling with [131I]OIB / [131I]HIB, H9C2 cells; type: cell-based; details: H9C2, in PBS, centrifuged and washed several times
SCC-7 cells = assay: Cell labelling with [131I]OIB / [131I]HIB, SCC-7 cells; type: cell-based; details: SCC-7, in PBS, centrifuged and washed several times
4T1 cells = assay: Cell labelling with [131I]OIB / [131I]HIB, 4T1 cells; type: cell-based; details: 4T1, in PBS, centrifuged and washed several times
HeLa cells = assay: Cell labelling with [131I]OIB / [131I]HIB, HeLa cells; type: cell-based; details: in PBS, centrifuged and washed several times
[1] = tested on: cells with introduced L6-NIS/GFP reporter [L6-NIS/GFP 리포터가 이입된 세포]; assay: Gamma camera and GFP imaging of labelled L6-NIS/GFP cells injected subcutaneously in nude mice; type: in vivo, nude mouse
[2] = tested on: rat cardiomyocytes L6 [랫트(rat) 심근세포 L6]; assay: Gamma camera imaging of labelled L6 cells transplanted into rat myocardium; type: in vivo; details: L6 labelled for 2 h, transplanted directly into rat myocardium
labelled cells [표지한 세포] = assay: MicroPET imaging after tail vein injection of [124I]HIB-labelled cells; type: in vivo; details: mouse, imaged for 2 h after injection, for 2 h at 18 h, and up to 66 h (about 3 days)
[3] = MicroPET imaging after tail vein injection of [124I]HIB; type: in vivo; details: mouse

Compound: OC[C@H]1OC(O)[C@H]([18F])[C@@H](O)[C@@H]1O (stereo partly drawn) [[18F]FDG, 2-[18F]fluoro-2-deoxy-D-glucose]
- release of label from cells (cells [세포]): 수 시간 후에 세포에서 떨어져 나와

Compound: CNC(=S)NN=CC(C)=NNC(=S)NC.[64Cu] [[64Cu]PTSM, [64Cu]pyruvaldehyde-bis-(n4-methyl-thiosemicarbazone)]
- release of label from cells (cells [세포]; after incubation with cells): 수 시간 후에 세포에서 떨어져 나와
- duration of cell labelling (cells [세포]; compared with other F-18/Cu-64 labelling): 좀 더 장기간 세포 표지가 가능하였다

Compound: CCCCCCCCCCCCCCCCOC(=O)c1ccc([131I])cc1 [[131I]HIB]
- cell labelling yield (L6 cells): ≥ 20%
- cell labelling yield (H9C2 cells): ≥ 20%
- cell labelling yield (SCC-7 cells): ≥ 20%
- cell labelling yield (4T1 cells): ≥ 20%
- cell labelling yield (HeLa cells): ≥ 20%

Compound: O=C(ON1C(=O)CCC1=O)c1ccc([18F])cc1 [[18F]FSB, N-succimidyl-4-[18F]fluorobenzoate]
- loss of label from cells (cells [세포]; according to previous results): 알킬레이트된 부분이 신진 대사로 방출되면서 세포에서 표지자가 빠져나가는 것으로 여겨진다

Compound: CCCCCCCC/C=C\CCCCCCCCOC(=O)c1ccc([131I])cc1 [[131I]OIB]
- cell labelling yield (L6 cells): ≥ 20%
- cell labelling efficiency (L6 cells; [131I]OIB 136 μCi, 4x10^5 L6 cells in serum-free medium, room temperature, 30 min, washed twice with PBS): 26%
- cell labelling yield (H9C2 cells): ≥ 20%
- cell labelling yield (SCC-7 cells): ≥ 20%
- time up to which GFP imaging was measurable ([1]; 1x10^7 [131I]OIB-labelled cells s.c. in each thigh and shoulder of nude mouse): 14 days
- time up to which labelled cells were visible by gamma camera ([1]; 1x10^7 cells s.c. in each thigh and shoulder of nude mouse, gamma camera day 1 to 14): 14 days
- cell labelling yield (4T1 cells): ≥ 20%
- cell labelling yield (HeLa cells): ≥ 20%
- period over which transplanted labelled cells were imaged by gamma camera [2]: 2 weeks

Compound: CCCCCCCCCCCCCCCCOC(=O)c1ccc([124I])cc1 [[124I]HIB]
- time up to which labelled cells were seen accumulated in lung (microPET) (labelled cells [표지한 세포]): 66 h
- accumulation in thyroid and bladder (microPET) [3]: 갑상선과 방광 부위에 [124I]HIB가 축적되는 것을 확인
- accumulation of activity in liver (microPET) [3]: 간 위치에 활성도가 축적
- excretion route ([3]; inferred from liver activity): 간을 통하여 배출되는 것으로 여겨진다
